These are literature values, as cited in patent publication EP2738198A1, “Enzymatic synthesis of polyamide in aqueous mini-emulsion” (Henkel AG & Co. KGaA, priority 2012, dated 2014).

SMILES strings stand for the structures.

For this data set the following is noted: alcohol CnH2n+1OH corresponding to the alkyl group of the di(alkyl) sebacate, data from Handbook of Chemistry and Physics 86th Edition.
Regarding `CCO` [n 2], the “Partial Solubility of CnH2n+1OH in water” value was “∞”.
`CCCCCCO` [n 6]: the “Partial Solubility of CnH2n+1OH in water” value is 7900 µg/mL.
As to `CCCCCCCCO` [n 8], the “Partial Solubility of CnH2n+1OH in water” value was 300 µg/mL.
